Results: ChEMBL document CHEMBL1201862, “PubChem BioAssay data set” (2004)
The source made the active and inactive calls.

Tests used:
Vero = experiment: cells; assay type: functional; settings: Chlorocebus sabaeus
[1] = biological target: FAD-linked sulfhydryl oxidase ALR (Homo sapiens, UniProt P55789); experiment: inhibitors of human ALR sulfhydryl oxidase, dose response, biochemical, H2O2 detection, luminescence, cherry-pick (AID 493248)
[2] = C. albicans growth with fluconazole, confirmation, fluorescence, retest (AID 2467); assay type: functional, cell-based
H4 = experiment: Luminescence Cell-Based Dose Response HTS to Identify Activators of 5'UTR Stem-Loop Driven Prion Protein mRNA Translation in H4 Neuroglioblastoma Cells. [Related pubchem assays: 1829 (Project Summary), 1814 (Primary HTS)]; assay type: functional; settings: Homo sapiens
[3] = Luminescence Cell-Based Dose Confirmation HTS to Identify Activators of 5'UTR Stem-Loop Driven Alpha-Synuclein mRNA Translation in H4 Neuroglioblastoma Cells. [Related pubchem assays: 1829 (Project Summary), 1814 (Primary HTS)]; assay type: functional
[4] = NIH-3T3 fibroblast cytotoxicity, dose response, cytotoxicity control, cell-based, fluorescence, Alamar Blue, secondary assay (AID 2327); assay type: functional;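 further: NIH-3T3 mouse fibroblasts cultured with fluconazole at 8 µg/mL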
[5] = system: Streptococcus sp. 'group A'; experiment: growth inhibition of control SK(-) GAS strain, dose response, counter-screen for streptokinase expression inhibitor project, luminescence, kanamycin, BacTiterGlo, confirmation (AID 1900); assay type: functional, organism-based
[6] = biological target: T1, Corticotropin-releasing factor receptor 2/Corticotropin-releasing factor-binding protein (Homo sapiens, UniProt P24387+Q13324); experiment: Dose Response confirmation of uHTS hits for small molecule antagonists of the CRF-binding protein and CRF-R2 receptor complex.; assay type: functional; settings: read-out: IC50_Mean
T1 sequence (Q13324 whole entry): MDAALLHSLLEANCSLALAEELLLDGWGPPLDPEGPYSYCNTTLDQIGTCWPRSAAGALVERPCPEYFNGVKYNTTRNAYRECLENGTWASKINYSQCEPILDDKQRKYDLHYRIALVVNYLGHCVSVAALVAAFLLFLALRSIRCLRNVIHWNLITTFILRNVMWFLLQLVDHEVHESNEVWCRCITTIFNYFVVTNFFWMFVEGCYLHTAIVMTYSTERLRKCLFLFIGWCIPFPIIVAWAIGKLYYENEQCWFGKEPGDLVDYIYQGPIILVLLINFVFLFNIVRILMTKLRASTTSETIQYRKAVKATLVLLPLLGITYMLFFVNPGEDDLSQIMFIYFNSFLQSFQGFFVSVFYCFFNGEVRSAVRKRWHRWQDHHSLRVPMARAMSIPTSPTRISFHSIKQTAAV
T1 sequence (P24387 whole entry): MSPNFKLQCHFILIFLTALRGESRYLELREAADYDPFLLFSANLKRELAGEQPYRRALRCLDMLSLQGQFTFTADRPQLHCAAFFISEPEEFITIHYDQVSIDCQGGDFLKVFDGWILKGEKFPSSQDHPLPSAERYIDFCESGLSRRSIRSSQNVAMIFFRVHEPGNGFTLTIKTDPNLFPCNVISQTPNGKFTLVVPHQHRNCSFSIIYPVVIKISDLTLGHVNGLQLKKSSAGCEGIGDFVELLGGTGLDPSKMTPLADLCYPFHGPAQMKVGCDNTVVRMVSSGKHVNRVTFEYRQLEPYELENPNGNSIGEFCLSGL

Streptococcus = experiment: Group A Streptococcus viability loss, dose response, counter-screen for streptokinase expression inhibitor project, luminescence, BacTiterGlo (AID 1915); assay type: functional, organism-based;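 further: potency for reduction of bacterial viability or growth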
[7] = biological target: T1, Corticotropin-releasing factor receptor 2/Corticotropin-releasing factor-binding protein; experiment: activators of CRF receptor 2 with binding protein – uHTS hits, confirmation (AID 602473); assay type: functional; settings: read-out: EC50_Mean
Streptokinase A = biological target: T2, Streptokinase A (Streptococcus pyogenes serotype M1, UniProt P10520); experiment: S. pyogenes streptokinase expression inhibitors, potency, dose response, plasminogen activation absorbance, OD405 (AID 1914); assay type: functional, Streptococcus pyogenes M1 GAS;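 further: secreted streptokinase activity via plasminogen activation per viability signal from cell pellet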
T2 sequence (P10520 whole entry): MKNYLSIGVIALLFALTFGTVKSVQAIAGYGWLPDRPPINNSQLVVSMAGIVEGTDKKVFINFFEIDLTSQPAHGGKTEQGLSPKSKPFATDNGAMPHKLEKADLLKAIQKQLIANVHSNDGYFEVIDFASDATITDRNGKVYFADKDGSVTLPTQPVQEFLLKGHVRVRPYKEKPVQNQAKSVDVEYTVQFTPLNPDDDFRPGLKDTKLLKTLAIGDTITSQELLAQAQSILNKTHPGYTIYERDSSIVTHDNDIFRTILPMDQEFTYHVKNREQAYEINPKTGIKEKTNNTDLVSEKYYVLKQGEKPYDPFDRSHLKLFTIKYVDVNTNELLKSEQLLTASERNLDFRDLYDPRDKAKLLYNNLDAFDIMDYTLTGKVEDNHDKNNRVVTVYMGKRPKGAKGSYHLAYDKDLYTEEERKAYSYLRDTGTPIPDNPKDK

[8] = biological target: T3, Replicative DNA helicase DnaB (Mycobacterium tuberculosis, UniProt P9WMR3); experiment: DnaB intein splicing inhibitors, dose response, biochemical, cell-free fluorescence (AID 449749); assay type: functional
T3 sequence (P9WMR3 whole entry): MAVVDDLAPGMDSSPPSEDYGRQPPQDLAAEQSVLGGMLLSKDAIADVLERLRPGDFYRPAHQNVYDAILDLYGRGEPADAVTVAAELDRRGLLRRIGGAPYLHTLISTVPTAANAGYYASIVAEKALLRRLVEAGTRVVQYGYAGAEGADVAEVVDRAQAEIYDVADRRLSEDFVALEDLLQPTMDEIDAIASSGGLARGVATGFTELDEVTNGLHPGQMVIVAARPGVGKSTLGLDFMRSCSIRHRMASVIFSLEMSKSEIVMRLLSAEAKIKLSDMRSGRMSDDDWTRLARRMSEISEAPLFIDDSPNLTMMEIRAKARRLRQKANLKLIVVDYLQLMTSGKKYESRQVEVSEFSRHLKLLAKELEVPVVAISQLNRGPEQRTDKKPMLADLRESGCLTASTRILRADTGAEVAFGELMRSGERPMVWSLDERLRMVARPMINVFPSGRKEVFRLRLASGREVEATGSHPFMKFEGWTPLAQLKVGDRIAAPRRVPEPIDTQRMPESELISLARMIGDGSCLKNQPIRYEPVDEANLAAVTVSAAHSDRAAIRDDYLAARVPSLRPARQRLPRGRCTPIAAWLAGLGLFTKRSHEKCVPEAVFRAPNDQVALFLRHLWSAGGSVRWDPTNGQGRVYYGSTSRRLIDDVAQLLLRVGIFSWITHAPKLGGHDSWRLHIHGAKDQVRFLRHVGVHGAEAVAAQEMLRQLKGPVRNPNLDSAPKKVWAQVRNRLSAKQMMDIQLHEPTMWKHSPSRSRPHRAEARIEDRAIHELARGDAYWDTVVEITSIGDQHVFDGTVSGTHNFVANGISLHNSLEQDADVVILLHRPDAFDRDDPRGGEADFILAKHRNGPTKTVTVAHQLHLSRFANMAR

Protein RecA = biological target: T4, Protein RecA (Mycobacterium tuberculosis, UniProt P9WHJ3); experiment: Fluorescence Cell-Free Homogeneous Dose Retest to Identify Inhibitors of RecA-Intein Splicing Activity. [Related pubchem assays (depositor defined):AID2097, AID2223, AID489010, AID492950]; assay type: functional
T4 sequence (P9WHJ3 whole entry): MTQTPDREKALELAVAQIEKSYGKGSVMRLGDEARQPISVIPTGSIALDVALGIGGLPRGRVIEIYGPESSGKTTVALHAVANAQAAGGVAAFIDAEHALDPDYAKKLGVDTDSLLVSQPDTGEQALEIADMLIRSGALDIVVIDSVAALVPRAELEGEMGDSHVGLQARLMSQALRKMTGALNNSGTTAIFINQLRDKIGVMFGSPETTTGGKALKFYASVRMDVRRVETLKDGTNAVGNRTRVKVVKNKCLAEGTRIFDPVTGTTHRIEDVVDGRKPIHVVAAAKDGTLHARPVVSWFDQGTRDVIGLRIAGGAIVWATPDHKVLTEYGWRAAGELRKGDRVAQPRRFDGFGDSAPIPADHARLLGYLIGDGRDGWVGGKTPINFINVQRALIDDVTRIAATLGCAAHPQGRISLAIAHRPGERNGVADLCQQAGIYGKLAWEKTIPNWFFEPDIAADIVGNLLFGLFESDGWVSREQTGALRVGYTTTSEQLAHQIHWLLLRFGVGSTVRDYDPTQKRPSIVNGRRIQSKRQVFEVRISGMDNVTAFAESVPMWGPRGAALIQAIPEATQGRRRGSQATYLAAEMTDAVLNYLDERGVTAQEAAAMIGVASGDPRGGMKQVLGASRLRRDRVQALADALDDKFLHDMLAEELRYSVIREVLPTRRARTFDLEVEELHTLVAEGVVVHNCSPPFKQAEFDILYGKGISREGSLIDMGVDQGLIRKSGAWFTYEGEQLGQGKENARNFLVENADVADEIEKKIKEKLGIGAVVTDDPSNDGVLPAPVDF

[9] = biological target: T5, Ubiquitin-conjugating enzyme E2 N (Homo sapiens, UniProt P61088); assay type: functional;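 further: Dose-response confirmation in a TR-FRET assay detecting UBC13-driven polyubiquitin chain formation, inhibition measured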
T5 sequence (P61088 whole entry): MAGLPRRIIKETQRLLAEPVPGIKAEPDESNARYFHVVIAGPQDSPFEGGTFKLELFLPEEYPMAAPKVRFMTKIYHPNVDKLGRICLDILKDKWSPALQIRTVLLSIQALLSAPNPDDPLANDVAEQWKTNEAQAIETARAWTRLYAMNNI

[10] = Luminescence Cell-Based Dose Retest to Confirm Inhibitors of Cancer Stem Cells. [Related pubchem assays (depositor defined):AID2717, AID2721]; assay type: functional; settings: Homo sapiens
[11] = microbe, parasite or virus in culture; assay type: functional; settings: Mycobacterium tuberculosis
[12] = HEp-2 cell cytotoxicity, dose response, cytotoxicity control for RSV inhibitor project, HTS (AID 2410); assay type: functional; settings: human respiratory syncytial virus
[13] = Luminescence Cell-Based Dose Response HTS to Identify Activators of Luciferase Translation or Activity in H4 […] Cells. [Related pubchem assays: 1829 (Project Summary), 1814 (Primary HTS)]; assay type: functional
[14] = biological target: T6, Rac GTPase-activating protein 1 (Homo sapiens, UniProt Q9H0H5); experiment: MgcRacGAP GTPase-activating activity inhibitors, confirmation, biochemical, ADP Hunter fluorescence, primary and confirmatory (AID 624330); assay type: functional
T6 sequence (Q9H0H5 whole entry): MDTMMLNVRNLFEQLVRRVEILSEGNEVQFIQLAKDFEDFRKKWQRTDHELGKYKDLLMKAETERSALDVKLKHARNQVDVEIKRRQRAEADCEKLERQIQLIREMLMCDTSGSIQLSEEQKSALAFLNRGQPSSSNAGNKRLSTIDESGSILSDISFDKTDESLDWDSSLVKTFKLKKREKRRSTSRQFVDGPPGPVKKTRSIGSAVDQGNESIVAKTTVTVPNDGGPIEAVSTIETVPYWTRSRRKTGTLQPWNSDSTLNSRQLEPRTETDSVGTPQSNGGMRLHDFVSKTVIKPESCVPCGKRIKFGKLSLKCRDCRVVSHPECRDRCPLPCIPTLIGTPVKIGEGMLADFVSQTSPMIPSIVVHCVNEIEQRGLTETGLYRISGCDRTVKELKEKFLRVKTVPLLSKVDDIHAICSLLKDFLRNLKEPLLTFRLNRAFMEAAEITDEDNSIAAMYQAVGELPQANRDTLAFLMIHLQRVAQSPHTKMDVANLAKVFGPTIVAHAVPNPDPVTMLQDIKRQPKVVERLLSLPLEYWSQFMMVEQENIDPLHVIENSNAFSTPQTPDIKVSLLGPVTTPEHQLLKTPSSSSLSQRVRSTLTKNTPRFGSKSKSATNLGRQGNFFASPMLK

Large T antigen = Large T antigen (Simian virus 40, UniProt P03070); assay type: functional, Betapolyomavirus macacae;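 further: Confirmatory-stage PubChem screen for compounds that inhibit SV40 T antigen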
Sequence of Large T antigen (P03070 whole entry): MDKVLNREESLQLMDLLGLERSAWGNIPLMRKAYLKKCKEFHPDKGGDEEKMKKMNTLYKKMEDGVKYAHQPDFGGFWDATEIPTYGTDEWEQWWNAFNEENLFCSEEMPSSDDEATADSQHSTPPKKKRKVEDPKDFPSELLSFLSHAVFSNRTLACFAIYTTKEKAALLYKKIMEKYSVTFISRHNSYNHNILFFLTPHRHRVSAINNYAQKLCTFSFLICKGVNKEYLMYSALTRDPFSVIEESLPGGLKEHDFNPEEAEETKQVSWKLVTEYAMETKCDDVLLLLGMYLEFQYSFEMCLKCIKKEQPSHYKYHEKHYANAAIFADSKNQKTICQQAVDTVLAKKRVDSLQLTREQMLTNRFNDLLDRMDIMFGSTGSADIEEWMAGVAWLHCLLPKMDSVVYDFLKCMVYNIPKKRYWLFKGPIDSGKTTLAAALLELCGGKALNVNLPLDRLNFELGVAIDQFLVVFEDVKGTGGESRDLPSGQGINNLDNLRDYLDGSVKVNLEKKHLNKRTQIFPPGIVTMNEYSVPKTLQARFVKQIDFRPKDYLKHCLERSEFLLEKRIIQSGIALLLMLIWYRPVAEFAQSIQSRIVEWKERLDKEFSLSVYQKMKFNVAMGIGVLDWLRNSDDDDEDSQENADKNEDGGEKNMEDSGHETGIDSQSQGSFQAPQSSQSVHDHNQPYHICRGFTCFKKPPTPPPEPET

Sequence of FAD-linked sulfhydryl oxidase ALR (P55789 whole entry): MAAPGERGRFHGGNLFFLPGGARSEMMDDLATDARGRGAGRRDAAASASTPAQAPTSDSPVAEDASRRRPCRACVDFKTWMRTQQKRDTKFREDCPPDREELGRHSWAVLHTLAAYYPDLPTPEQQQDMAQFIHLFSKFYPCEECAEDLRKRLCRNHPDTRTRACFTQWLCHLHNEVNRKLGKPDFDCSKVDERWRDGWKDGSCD

N#Cc1c(NC(=O)CSc2nc3ccccc3c(=O)n2Cc2ccco2)sc2c1CCCC2
CC50 (Vero): > 25 µM (active)

COc1ccc(N2CC(NC(=O)N3CCN(c4ccccc4)CC3)CC2=O)cc1 (stereo not drawn)
AC50 [1]: 4.41 µM (active)

Cc1ccc(C2=CSC3=NNC4(CCCCC4)NN23)cc1
AC50 [1]: 1.86 µM (active)
EC50 [2]: 1.76 µM (active)
EC50 (H4): 12.4 µM (active)
EC50 [3]: 9.71 µM (active)
EC50 [4]: 22.3 µM (inconclusive)

Cc1ccc(N=Nc2ccc(O)c(P(=O)(c3ccccc3)c3ccccc3)c2)cc1
EC50 [5]: 3.58 µM (active)
IC50 [6]: > 47.1 µM (inactive)
EC50 (Streptococcus): 110 µM (active)
CC50 (Vero): > 25 µM (active)
EC50 [7]: > 53 µM (inactive)
EC50 (Streptokinase A): > 150 µM (not active)

O=C(CN1C(=O)S/C(=C\C=C\c2ccccc2)C1=O)Nc1ccc(C(=O)O)cc1
AC50 [8]: 177 µM (active)
EC50 (Protein RecA): > 380 µM (inactive)

CCOc1ccc(N(C(=O)c2snc(C(N)=O)c2N)C(C(=O)NC2CCCC2)C(C)C)cc1 (stereo not drawn)
IC50 [9]: > 20 µM (inactive)

O=C(NCc1nnc(S)n1-c1ccc(Cl)c(Cl)c1)c1ccco1
AC50 [1]: 4.14 µM (active)

Oc1c(Cl)cc(Cl)cc1CNc1ccc(Br)cn1
AC50 [1]: 5.33 µM (active)
AC50 [10]: 2.56 µM (active)

COc1cc2c(cc1OC)C1(Nc3c-2c(-c2ccccc2)nn3-c2ccccc2)C(=O)Nc2ccccc21 (stereo not drawn)
CC50 [11]: 10.4 µM (active)

Cc1ccc2cc(/C=C/C(=O)c3ccco3)c(Cl)nc2c1
CC50 [12]: 21.2 µM (active)
CC50 (Vero): 14.3 µM (active)

COc1cc(C(c2c(C)n[nH]c2O)c2c(C)n[nH]c2O)cc(Cl)c1O
AC50 [8]: 2.6 µM (active)
EC50 (Protein RecA): 0.453 µM (active)

CCOc1ccccc1C1N=C(c2ccc(OC)cc2)CC(c2ccccc2O)N1 (stereo not drawn)
EC50 [13]: 14.3 µM (active)
EC50 (H4): 12.3 µM (active)
EC50 [3]: 14.2 µM (active)
CC50 (Vero): > 25 µM (active)

C=CCn1c(Cc2cccs2)nnc1SCC(=O)Nc1ccc(C(=O)OCC)cc1
CC50 [11]: > 40 µM (active)

O=C(C(=O)N1CCOCC1)c1cn(Cc2ccccc2)c2ccccc12
IC50 [9]: > 20 µM (inactive)

CC(=O)c1ccc(S(=O)(=O)NCC(=O)NC(c2nc3ccccc3[nH]2)C(C)C)cc1 (stereo not drawn)
AC50 [1]: 0.113 µM (active)

COc1cc(/C=N/NC(=O)CCN2CCCCC2)ccc1O
AC50 [1]: 3.05 µM (active)
IC50 [14]: 32.1 µM (active)

COc1ccc2c(/C=N/Nc3ccc(C(=O)O)cc3)c[nH]c2c1
AC50 [1]: 1.9 µM (active)
IC50 [14]: 54.9 µM (active)

COc1cc(/C=N/NC2=NCCCCC2)ccc1O
IC50 (Large T antigen): 6.11 µM (active)
AC50 [1]: 0.028 µM (active)
IC50 [14]: 22.5 µM (active)
